From article PMC4061985 (Journal of immunology (Baltimore, Md. : 1950), 2009) come the findings set out here.

Residues, ends and D or L forms follow the SMILES beside them.

The experiment deals with HLA-DR0901 protein (Homo sapiens, UniProt P01903+P01911, A100R/A103E/D57H/D86V/F55Y/F60I/F76Y/I96F/K127E/L162R/M171V/P40D/Q125H/Q99R/R33Q/R42F/S133A/S66N/T210M/V115G/W38K/Y107V/Y59G/Y89S). As to the kind of experiment: Peptide binding competition assay, DR0901.
As a reminder, the Kd is the free concentration of one partner at which half of the binding sites on the other are occupied at equilibrium, for simple one-to-one binding. Lower therefore signals higher affinity. `CC[C@H](C)[C@H](NC(=O)[C@H](CCCCN)NC(=O)[C@H](CC(=O)O)NC(=O)[C@H](CC(C)C)NC(=O)[C@H](C)NC(=O)[C@H](Cc1ccc(O)cc1)NC(=O)[C@H](CC(N)=O)NC(=O)[C@H](Cc1ccccc1)NC(=O)[C@H](CC(N)=O)NC(=O)[C@@H](N)CC(C)C)C(=O)N[C@H](C(=O)N[C@H](C(=O)N[C@@H](CC(=O)O)C(=O)O)C(C)C)[C@@H](C)CC` [LNFNYALDKIIVD] (H-LNFNYALDKIIVD-OH) gave a Kd of 55 ± 10 nM.

Consider `CC[C@H](C)[C@H](NC(=O)[C@H](CCCCN)NC(=O)[C@H](CC(=O)O)NC(=O)[C@H](CC(C)C)NC(=O)[C@H](CC(=O)O)NC(=O)[C@H](Cc1ccc(O)cc1)NC(=O)[C@H](CC(N)=O)NC(=O)[C@H](Cc1ccccc1)NC(=O)[C@H](CC(N)=O)NC(=O)[C@@H](N)CC(C)C)C(=O)N[C@H](C(=O)N[C@H](C(=O)N[C@@H](CC(=O)O)C(=O)O)C(C)C)[C@@H](C)CC` [LNFNYDLDKIIVD] (H-LNFNYDLDKIIVD-OH), for which the Kd was determined as 1040 nM. `CC[C@H](C)[C@H](NC(=O)[C@H](CCCCN)NC(=O)[C@H](CC(=O)O)NC(=O)[C@H](CC(C)C)NC(=O)[C@H](CCC(=O)O)NC(=O)[C@H](Cc1ccc(O)cc1)NC(=O)[C@H](CC(N)=O)NC(=O)[C@H](Cc1ccccc1)NC(=O)[C@H](CC(N)=O)NC(=O)[C@@H](N)CC(C)C)C(=O)N[C@H](C(=O)N[C@H](C(=O)N[C@@H](CC(=O)O)C(=O)O)C(C)C)[C@@H](C)CC` [LNFNYELDKIIVD] (H-LNFNYELDKIIVD-OH) gave a Kd of 116000 nM.

In turn, `CC[C@H](C)[C@H](NC(=O)[C@H](CCCCN)NC(=O)[C@H](CC(=O)O)NC(=O)[C@H](CC(C)C)NC(=O)CNC(=O)[C@H](Cc1ccc(O)cc1)NC(=O)[C@H](CC(N)=O)NC(=O)[C@H](Cc1ccccc1)NC(=O)[C@H](CC(N)=O)NC(=O)[C@@H](N)CC(C)C)C(=O)N[C@H](C(=O)N[C@H](C(=O)N[C@@H](CC(=O)O)C(=O)O)C(C)C)[C@@H](C)CC` [LNFNYGLDKIIVD] (H-LNFNYGLDKIIVD-OH) displayed a Kd of 38 ± 5 nM. The result for `CC[C@H](C)[C@H](NC(=O)[C@H](CCCCN)NC(=O)[C@H](CC(=O)O)NC(=O)[C@H](CC(C)C)NC(=O)[C@H](Cc1c[nH]cn1)NC(=O)[C@H](Cc1ccc(O)cc1)NC(=O)[C@H](CC(N)=O)NC(=O)[C@H](Cc1ccccc1)NC(=O)[C@H](CC(N)=O)NC(=O)[C@@H](N)CC(C)C)C(=O)N[C@H](C(=O)N[C@H](C(=O)N[C@@H](CC(=O)O)C(=O)O)C(C)C)[C@@H](C)CC` [LNFNYHLDKIIVD] (H-LNFNYHLDKIIVD-OH) reads 80 ± 15 nM. `CC[C@H](C)[C@H](NC(=O)[C@H](CCCCN)NC(=O)[C@H](CC(=O)O)NC(=O)[C@H](CC(C)C)NC(=O)[C@H](CC(C)C)NC(=O)[C@H](Cc1ccc(O)cc1)NC(=O)[C@H](CC(N)=O)NC(=O)[C@H](Cc1ccccc1)NC(=O)[C@H](CC(N)=O)NC(=O)[C@@H](N)CC(C)C)C(=O)N[C@H](C(=O)N[C@H](C(=O)N[C@@H](CC(=O)O)C(=O)O)C(C)C)[C@@H](C)CC` [LNFNYLLDKIIVD] (H-LNFNYLLDKIIVD-OH) registered a Kd of 3600 nM. In the case of `CC[C@H](C)[C@H](NC(=O)[C@H](CCCCN)NC(=O)[C@H](CC(=O)O)NC(=O)[C@H](CC(C)C)NC(=O)[C@H](CCSC)NC(=O)[C@H](Cc1ccc(O)cc1)NC(=O)[C@H](CC(N)=O)NC(=O)[C@H](Cc1ccccc1)NC(=O)[C@H](CC(N)=O)NC(=O)[C@@H](N)CC(C)C)C(=O)N[C@H](C(=O)N[C@H](C(=O)N[C@@H](CC(=O)O)C(=O)O)C(C)C)[C@@H](C)CC` [LNFNYMLDKIIVD] (H-LNFNYMLDKIIVD-OH) it was 146 ± 9 nM. In the case of `CC[C@H](C)[C@H](NC(=O)[C@H](CCCCN)NC(=O)[C@H](CC(=O)O)NC(=O)[C@H](CC(C)C)NC(=O)[C@H](CC(N)=O)NC(=O)[C@H](Cc1ccc(O)cc1)NC(=O)[C@H](CC(N)=O)NC(=O)[C@H](Cc1ccccc1)NC(=O)[C@H](CC(N)=O)NC(=O)[C@@H](N)CC(C)C)C(=O)N[C@H](C(=O)N[C@H](C(=O)N[C@@H](CC(=O)O)C(=O)O)C(C)C)[C@@H](C)CC` [LNFNYNLDKIIVD] (H-LNFNYNLDKIIVD-OH) it was 290 ± 90 nM; in that of `CC[C@H](C)[C@H](NC(=O)[C@H](CCCCN)NC(=O)[C@H](CC(=O)O)NC(=O)[C@H](CC(C)C)NC(=O)[C@@H]1CCCN1C(=O)[C@H](Cc1ccc(O)cc1)NC(=O)[C@H](CC(N)=O)NC(=O)[C@H](Cc1ccccc1)NC(=O)[C@H](CC(N)=O)NC(=O)[C@@H](N)CC(C)C)C(=O)N[C@H](C(=O)N[C@H](C(=O)N[C@@H](CC(=O)O)C(=O)O)C(C)C)[C@@H](C)CC` [LNFNYPLDKIIVD] (H-LNFNYPLDKIIVD-OH), 290 ± 70 nM.

Compound `CC[C@H](C)[C@H](NC(=O)[C@H](CCCCN)NC(=O)[C@H](CC(=O)O)NC(=O)[C@H](CC(C)C)NC(=O)[C@H](CCC(N)=O)NC(=O)[C@H](Cc1ccc(O)cc1)NC(=O)[C@H](CC(N)=O)NC(=O)[C@H](Cc1ccccc1)NC(=O)[C@H](CC(N)=O)NC(=O)[C@@H](N)CC(C)C)C(=O)N[C@H](C(=O)N[C@H](C(=O)N[C@@H](CC(=O)O)C(=O)O)C(C)C)[C@@H](C)CC` [LNFNYQLDKIIVD] (H-LNFNYQLDKIIVD-OH) yielded a Kd of 1500 nM. Compound `CC[C@H](C)[C@H](NC(=O)[C@H](CCCCN)NC(=O)[C@H](CC(=O)O)NC(=O)[C@H](CC(C)C)NC(=O)[C@H](CCCNC(=N)N)NC(=O)[C@H](Cc1ccc(O)cc1)NC(=O)[C@H](CC(N)=O)NC(=O)[C@H](Cc1ccccc1)NC(=O)[C@H](CC(N)=O)NC(=O)[C@@H](N)CC(C)C)C(=O)N[C@H](C(=O)N[C@H](C(=O)N[C@@H](CC(=O)O)C(=O)O)C(C)C)[C@@H](C)CC` [LNFNYRLDKIIVD] (H-LNFNYRLDKIIVD-OH) registered a Kd of 1230 nM. This Kd and that of the compound before are within 1.5-fold of each other. The result for `CC[C@H](C)[C@H](NC(=O)[C@H](CCCCN)NC(=O)[C@H](C)NC(=O)[C@H](CC(C)C)NC(=O)[C@H](CO)NC(=O)[C@H](Cc1ccc(O)cc1)NC(=O)[C@H](CC(N)=O)NC(=O)[C@H](Cc1ccccc1)NC(=O)[C@H](CC(N)=O)NC(=O)[C@@H](N)CC(C)C)C(=O)N[C@H](C(=O)N[C@H](C(=O)N[C@@H](CC(=O)O)C(=O)O)C(C)C)[C@@H](C)CC` [LNFNYSLAKIIVD] (H-LNFNYSLAKIIVD-OH) reads 51 ± 18 nM; that for `CC[C@H](C)[C@H](NC(=O)[C@H](C)NC(=O)[C@H](CC(=O)O)NC(=O)[C@H](CC(C)C)NC(=O)[C@H](CO)NC(=O)[C@H](Cc1ccc(O)cc1)NC(=O)[C@H](CC(N)=O)NC(=O)[C@H](Cc1ccccc1)NC(=O)[C@H](CC(N)=O)NC(=O)[C@@H](N)CC(C)C)C(=O)N[C@H](C(=O)N[C@H](C(=O)N[C@@H](CC(=O)O)C(=O)O)C(C)C)[C@@H](C)CC` [LNFNYSLDAIIVD] (H-LNFNYSLDAIIVD-OH), 65 ± 20 nM. For `CC[C@H](C)[C@H](NC(=O)[C@H](CC(=O)O)NC(=O)[C@H](CC(=O)O)NC(=O)[C@H](CC(C)C)NC(=O)[C@H](CO)NC(=O)[C@H](Cc1ccc(O)cc1)NC(=O)[C@H](CC(N)=O)NC(=O)[C@H](Cc1ccccc1)NC(=O)[C@H](CC(N)=O)NC(=O)[C@@H](N)CC(C)C)C(=O)N[C@H](C(=O)N[C@H](C(=O)N[C@@H](CC(=O)O)C(=O)O)C(C)C)[C@@H](C)CC` [LNFNYSLDDIIVD] (H-LNFNYSLDDIIVD-OH), binding was characterised by a dissociation constant (Kd) of 176 ± 65 nM. Against the preceding compound, the Kd is about 2.7-fold higher. The result for `CC[C@H](C)[C@H](NC(=O)[C@H](Cc1ccccc1)NC(=O)[C@H](CC(=O)O)NC(=O)[C@H](CC(C)C)NC(=O)[C@H](CO)NC(=O)[C@H](Cc1ccc(O)cc1)NC(=O)[C@H](CC(N)=O)NC(=O)[C@H](Cc1ccccc1)NC(=O)[C@H](CC(N)=O)NC(=O)[C@@H](N)CC(C)C)C(=O)N[C@H](C(=O)N[C@H](C(=O)N[C@@H](CC(=O)O)C(=O)O)C(C)C)[C@@H](C)CC` [LNFNYSLDFIIVD] (H-LNFNYSLDFIIVD-OH) reads 28 ± 6 nM; that for `CC[C@H](C)[C@H](NC(=O)[C@H](Cc1c[nH]cn1)NC(=O)[C@H](CC(=O)O)NC(=O)[C@H](CC(C)C)NC(=O)[C@H](CO)NC(=O)[C@H](Cc1ccc(O)cc1)NC(=O)[C@H](CC(N)=O)NC(=O)[C@H](Cc1ccccc1)NC(=O)[C@H](CC(N)=O)NC(=O)[C@@H](N)CC(C)C)C(=O)N[C@H](C(=O)N[C@H](C(=O)N[C@@H](CC(=O)O)C(=O)O)C(C)C)[C@@H](C)CC` [LNFNYSLDHIIVD] (H-LNFNYSLDHIIVD-OH), 29 ± 9 nM; that for `CC[C@H](C)[C@H](NC(=O)[C@H](CCCCN)NC(=O)[C@H](CC(=O)O)NC(=O)[C@H](CC(C)C)NC(=O)[C@H](CO)NC(=O)[C@H](Cc1ccc(O)cc1)NC(=O)[C@H](CC(N)=O)NC(=O)[C@H](Cc1ccccc1)NC(=O)[C@H](CC(N)=O)NC(=O)[C@@H](N)CC(C)C)C(=O)N[C@@H](C)C(=O)N[C@H](C(=O)N[C@@H](CC(=O)O)C(=O)O)C(C)C` [LNFNYSLDKIAVD] (H-LNFNYSLDKIAVD-OH), 940 ± 250 nM. In the case of `CC[C@H](C)[C@H](NC(=O)[C@H](CCCCN)NC(=O)[C@H](CC(=O)O)NC(=O)[C@H](CC(C)C)NC(=O)[C@H](CO)NC(=O)[C@H](Cc1ccc(O)cc1)NC(=O)[C@H](CC(N)=O)NC(=O)[C@H](Cc1ccccc1)NC(=O)[C@H](CC(N)=O)NC(=O)[C@@H](N)CC(C)C)C(=O)N[C@@H](CC(=O)O)C(=O)N[C@H](C(=O)N[C@@H](CC(=O)O)C(=O)O)C(C)C` [LNFNYSLDKIDVD] (H-LNFNYSLDKIDVD-OH) it was 790 ± 120 nM; in that of `CC[C@H](C)[C@H](NC(=O)[C@H](CCCCN)NC(=O)[C@H](CC(=O)O)NC(=O)[C@H](CC(C)C)NC(=O)[C@H](CO)NC(=O)[C@H](Cc1ccc(O)cc1)NC(=O)[C@H](CC(N)=O)NC(=O)[C@H](Cc1ccccc1)NC(=O)[C@H](CC(N)=O)NC(=O)[C@@H](N)CC(C)C)C(=O)N[C@@H](CCC(=O)O)C(=O)N[C@H](C(=O)N[C@@H](CC(=O)O)C(=O)O)C(C)C` [LNFNYSLDKIEVD] (H-LNFNYSLDKIEVD-OH), 890 ± 290 nM; in that of `CC[C@H](C)[C@H](NC(=O)[C@H](CCCCN)NC(=O)[C@H](CC(=O)O)NC(=O)[C@H](CC(C)C)NC(=O)[C@H](CO)NC(=O)[C@H](Cc1ccc(O)cc1)NC(=O)[C@H](CC(N)=O)NC(=O)[C@H](Cc1ccccc1)NC(=O)[C@H](CC(N)=O)NC(=O)[C@@H](N)CC(C)C)C(=O)N[C@@H](Cc1c[nH]cn1)C(=O)N[C@H](C(=O)N[C@@H](CC(=O)O)C(=O)O)C(C)C` [LNFNYSLDKIHVD] (H-LNFNYSLDKIHVD-OH), 740 ± 170 nM.
